{
  "source": "patent US7629169B2",
  "about": "“Methods for the production of platelet-derived growth factor-responsive neural precursor cells” (Stem Cell Therapeutics Corp., priority 2004, dated 2009)",
  "key": {"[1]": {"tested_on": "PDGF-generated neurospheres", "experiment": "Differentiation of primary PDGF-AA-generated neurospheres, immunocytochemistry", "type": "cell-based, mouse"}, "dissociated E14 MGEs": {"tested_on": "dissociated E14 MGEs", "experiment": "Clonality test: GFP and CD1 E14 MGE cells co-cultured 1:1 in PDGF-AA", "type": "cell-based, mouse", "conditions": "100 ng/ml PDGF-AA, 20,000 cells/ml, GFP:CD1 1:1", "text": "PDGF is also known to have chemotaxic effects on cortical NSCs (Forsberg-Nilsson et al., J Neurosci Res 53:521 (1998)), and thus it was possible that neurospheres generated under PDGF stimulation resulted from the directed migration of NSCs along the culture dish into clumps that resembled clonally-derived neurospheres. This possibility was studied, as previously described (Represa et al., Eur J Neurosci 14:452 (2001)), by culturing dissociated E14 MGEs from CD1 and TgN(GFPU)5Nagy (ubiquitous green fluorescent protein [GFP]-expressing) mice together, 1:1, at 20,000 cells/ml, and in the presence of 100 ng/ml of PDGF-AA. If cell clumping generates the majority of the neurospheres, then most neurospheres should contain both GFP- and non-GFP-expressing cells. However, 95±11% of the neurospheres were not chimeric for GFP expression (p<0.01; Tukey HSD; n=3) (FIGS. 1C-D), and there was no difference in the number of GFP- or non-GFP-expressing neurospheres produced (p>0.65; Tukey HSD; n=3) (FIG. 1D)."}, "[2]": {"tested_on": "PRPs (single primary neurospheres)", "experiment": "Self-renewal by single sphere dissociation (secondary neurospheres)", "type": "cell-based", "conditions": "for secondary neurospheres per single primary PDGF-generated neurosphere: passaged into the named factor(s)", "procedure": "Self-renewal capacity was examined by single sphere dissociation. Briefly, single 6 DIV neurospheres of equivalent size that were generated in the presence of EGF, PDGF-AA, or PDGF-AA and SHH were transferred into 96 well plates and mechanically dissociated. Dissociates were cultured in MHM supplemented with EGF, FGF2 (includes 2 μg/ml HS), FGF2 and SHH, PDGF-AA, PDGF-AA and SHH, PDGF-AA and FGF2, PDGF-AA and FGF2 and SHH, PDGF-AA and DMSO (0.1%), PDGF-AA and SHH, or PDGF-AA and FGF2 and cyclopamine. The number of secondary neurospheres generated was counted after 9 DIV."}, "[3]": {"tested_on": "PDGF-responsive neural precursors (PRPs) from dissociated E14 MGE/LGE", "experiment": "Primary neurosphere generation from dissociated E14 ganglionic eminences", "type": "cell-based, mouse", "procedure": "Cell culture. The culture medium (MHM) was composed of DMEM/F-12 (1:1) including HEPES buffer (5 mM), glucose (0.6%), sodium bicarbonate (3 mM), glutamine (2 mM), insulin (25 μg/ml), transferrin (100 μg/ml), progesterone (20 nM), putrescine (10 μM), and sodium selenite (30 nM; all from Sigma, St. Louis, Mo., except glutamine from Invitrogen, Carlsbad, Calif.). The lateral, medial, or both ganglionic eminences (LGE, MGE or both) were removed from Embryonic Day 14 (E14) mouse embryos and mechanically dissociated with a fire-polished Pasteur pipette in MHM. Cells were plated at a density of […] unless otherwise indicated.\nFor neurosphere generation, PDGF-AA (100 ng/ml; Peprotech, Rocky Hill, N.J.), PDGF-BB (100 ng/ml; Peprotech), EGF (20 ng/ml; Peprotech), FGF2 (20 ng/ml; R&D [Minneapolis, Minn.])+heparan sulfate (2 μg/ml; HS; R&D), SHH (2 ug/ml; R&D), cyclopamine (5 μM; Toronto Research Chemicals, North York, Ontario), and/or DMSO (0.1%; carrier) was added to the MHM. MHM used to generate neurospheres also contained 2% B27 (Invitrogen).\n[…] is one of the earliest markers of OLPs, and signaling by PDGF-AA is required for the generation of most oligodendrocytes (Fruttiger et al., Development 126:457 (1999)). Increasing concentrations of PDGF-AA were used to determine whether stimulation of dissociated E14 medial and lateral ganglionic eminences. (MGE and LGE, respectively) results in generation of neurospheres. The neurosphere assay was used because manipulation of primary cells is minimal compared to the immunopanning procedures used to isolate O-2A progenitors.\nThe effect of brain-derived neurotrophic factor (BDNF), neurotrophin-3 (NT-3), and nerve growth factor (NGF) on PRPs was determined. Cells were cultured as previously reported (Chojnacki et al., J Neurosci 24(48):10888 2004) in the presence of various combinations of PDGF, brain-derived neurotrophic factor (BDNF), NT-3, nerve growth factor (NGF), and the effects on neurosphere generation characterized. MHM is the defined medium used in cultures without growth factor."}, "PRPs": {"tested_on": "PRPs", "experiment": "GFP-expressing PDGF neurosphere dissociates plated on EGF-generated feeder layer", "type": "cell-based, mouse", "conditions": "PDGF with EGF feeder layer", "text": "To determine if extrinsic factors could promote self-renewal of PRPs, individual, 7 DIV, GFP-expressing, PDGF-generated neurospheres were isolated, dissociated in the presence of PDGF-AA, and differentiated on coverslips that had been plated 2 days earlier with or without 0.2×10^6 cells/ml of EGF-generated cells from dissociated primary EGF neurospheres. EGF-generated feeder cells had been allowed to differentiate for 2 days in the presence of 1% FBS. Plates were rinsed 3× with MHM prior to the addition of GFP-expressing, PDGF-generated dissociates. Numbers of adherent clones and cells per clone were assessed by GFP expression. All images were captured with a Photometrics Coolsnap digital camera (Tuscon, Ariz.) mounted on a Leica Microsystems DMIL inverted fluorescence microscope with Coolsnap V1.2.0 software.\nHowever, these studies employed a defined culture media in which some factors required for self-renewal may be missing. To further study PRP self-renewal, primary PDGF neurospheres from the E14 MGEs of TgN(GFPU)5Nagy mice were grown for 7 DIV, individual neurospheres dissociated and transferred from single neurospheres onto poly-L-omithine coated coverslips that had been plated with or without 200,000 primary 7 DIV EGF-generated progeny 2 days earlier."}, "NSC": {"tested_on": "NSC", "experiment": "FGF2-induced NSC proliferation", "type": "cell-based", "conditions": "1 μM SU5402"}, "[4]": {"conditions": "6 DIV neurospheres differentiated 3 DIV"}},
  "data": [
    {"molecule": "N[C@@H](Cc1cc(I)c(Oc2ccc(O)c(I)c2)c(I)c1)C(=O)O", "note": "[T3, triiodothyronine]", "values": [
      {"measurement": "increase in differentiation of oligodendrocytes (O4)", "setting": "[1]; 20 ng/ml T3, 2 DIV, vs 1% FBS", "value": 5, "unit": "fold"},
      {"measurement": "MBP-only clones", "setting": "[1]; 2 DIV", "value": "increased the number of MBP-only clones"},
      {"measurement": "MBP-expressing cells produced per clone", "setting": "[1]; 2 DIV, vs 1% FBS, BMP-2, and T3 and BMP-2", "value": "significantly increased the number of MBP-expressing cells produced per clone"},
      {"measurement": "GFAP-immunoreactive astrocytes per neurosphere", "setting": "[1]; [4]", "value": "no astrocytes"},
      {"measurement": "MBP-immunoreactive oligodendrocytes per neurosphere", "setting": "[1]; [4]", "value": "3.9±0.4"}
    ]},
    {"molecule": "PDGF-AA: platelet-derived growth factor AA, 100 ng/ml; Peprotech", "values": [
      {"measurement": "neurospheres not chimeric for GFP expression", "setting": "dissociated E14 MGEs", "value": "95±11", "unit": "%"},
      {"measurement": "secondary neurospheres per single primary EGF-generated neurosphere", "setting": "[2]; passaged into PDGF-AA", "value": "26±5"},
      {"measurement": "secondary neurospheres per single primary PDGF-generated neurosphere", "setting": "[2]", "value": "1±1"},
      {"measurement": "neurospheres produced", "setting": "[3]; 100 ng/ml PDGF-AA, dissociated E14 MGE and LGE, n=3", "value": "12±1 neurospheres per 10,000 plated cells"},
      {"measurement": "number of primary neurospheres generated", "setting": "[3]; dissociated MGEs, SHH 2 μg/ml, n=8", "value": "60±9"},
      {"measurement": "neurosphere production versus concentration", "setting": "[3]; increasing concentrations of PDGF-AA", "value": "induced neurosphere production in a dose-dependent manner"},
      {"measurement": "adherent GFP-labeled clones", "setting": "PRPs", "value": "many clones of GFP-labeled cells that contained greater than 10 cells"}
    ]},
    {"molecule": "Cc1c[nH]c(/C=C2\\C(=O)Nc3ccccc32)c1CCC(=O)O", "note": "[SU5402, reference compound]", "values": [
      {"measurement": "primary PDGF neurosphere formation", "setting": "[3]; 1 μM SU5402", "value": "unaffected"},
      {"measurement": "block of FGF2-induced NSC proliferation", "setting": "NSC", "value": 90, "unit": "%"}
    ]},
    {"molecule": "FGF2: fibroblast growth factor 2, 20 ng/ml, with heparan sulfate 2 μg/ml", "values": [
      {"measurement": "secondary neurospheres per single primary PDGF-generated neurosphere", "setting": "[2]", "value": "3±1"},
      {"measurement": "secondary neurospheres / self-renewal compared with passage in PDGF", "setting": "[2]; primary PDGF-generated neurospheres passaged into the named factor(s)", "value": "No increase in self-renewal"}
    ]},
    {"molecule": "EGF: epidermal growth factor, 20 ng/ml; Peprotech (NSDSECPLSHDGYCLHDGVCMYIEALDKYACNCVVGYIGERCQYRDLKWWELR; Epidermal growth factor; UniProt P01133 971-1023, looked up)", "values": [
      {"measurement": "secondary neurospheres per single primary PDGF-generated neurosphere", "setting": "[2]", "value": "3±1"}
    ]},
    {"molecule": "CC1=C2C[C@H]3[C@@H](CC=C4C[C@@H](O)CC[C@@]43C)[C@@H]2CC[C@]12O[C@@H]1C[C@H](C)CN[C@H]1[C@H]2C", "note": "[cyclopamine, reference compound]", "values": [
      {"measurement": "secondary neurospheres per primary PDGF-generated neurosphere", "setting": "[2]; cyclopamine added to PDGF and FGF2", "value": "3±1"},
      {"measurement": "neurosphere size", "setting": "[3]; 5 μM cyclopamine with 100 ng/ml PDGF-AA", "value": "smaller"},
      {"measurement": "reduction in number of PDGF-AA-generated neurospheres", "setting": "[3]; 5 μM cyclopamine with 100 ng/ml PDGF-AA, MGE 10,000 cells/ml, vs PDGF-AA+DMSO", "value": 5, "unit": "fold"},
      {"measurement": "non-specific toxic effect", "setting": "[3]; 5 μM cyclopamine, phase-bright differentiating cells present", "value": "likely not a result of a non-specific toxic effect"}
    ]}
  ]
}
